The source of these data is ChEMBL document CHEMBL3137667, “[Drug-induced liver injury; fourteenth updated edition of the bibliographic database of liver injuries and related drugs]” (Gastroenterol Clin Biol, 2004).

Data set [1] can be described thus: Highest frequency of moderate liver toxicity observed during clinical trials, expressed as a percentage. [column '% BIOL' in source]. Particulars: human.
A short description of data set [2]: Highest frequency of acute liver toxicity observed during clinical trials, expressed as a percentage. [column '% AIGUE' in source]. Particulars: human.
A short description of data set [3]: Times to onset, minimal and maximal, observed in the indexed observations. [column 'DELAI' in source]. Particulars: human.
The conditions of data set [4]: human, serum.
For data set [5] the following is noted: human, serum. This is another data set of the same source.
For data set [6] the following is noted: human.
The conditions of data set [7]: human. The source holds these as a separate data set.
The conditions of data set [8]: human. The source holds these as a separate data set.
The conditions of data set [9]: human, serum, 4383 h.
The conditions of data set [10]: human. The source holds these as a separate data set.
For data set [11] the following is noted: human. The source holds these as a separate data set.
For data set [12] the following is noted: human. This is another data set of the same source.
The conditions of data set [13]: human. This is another data set of the same source.
The conditions of data set [14]: human. The source holds these as a separate data set.
The conditions of data set [15]: human. The source holds these as a separate data set.
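Wherever Hepatotoxicity (association with vascular disease) is given: count of indexed literature references reporting vascular liver injury in humans, e.g. peliosis hepatitis, hepatic veno-occlusive disease or Budd-Chiari syndrome.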
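Wherever Hepatotoxicity (benign tumour) is given: value is a count of indexed literature references citing a benign tumour confirmed by histopathology.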
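Wherever Hepatotoxicity (choleostasis) is given: human cholestatic liver injury, shown by histopathology or by peak ALT or AST elevation over alkaline phosphatase ratio below 2, value counts indexed literature reports.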
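Wherever Hepatotoxicity (chronic liver disease) is given: chronic liver injury confirmed by histopathology or persistently raised serum aminotransferase activity beyond 6 months, value given as the count of indexed literature references.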
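Wherever Hepatotoxicity (cirrhosis) is given: value is a count of indexed literature references reporting cirrhosis confirmed by histopathology.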
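Wherever Hepatotoxicity (cytolytic) is given: human cytolytic liver injury, shown by histopathology or by a ratio above 5 of peak ALT or AST elevation to alkaline phosphatase elevation, value counts indexed references.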
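Wherever Hepatotoxicity (granulomatous hepatitis) is given: value is a count of indexed literature references reporting granulomatous liver disease confirmed by histopathology.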
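Wherever Hepatotoxicity (malignant tumour) is given: malignant tumour confirmed by histopathology, value gives the count of indexed literature references reporting it.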
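Wherever Hepatotoxicity (severe hepatitis) is given: human clinical data: severe hepatitis, meaning potentially life-threatening liver failure or clinically observed cases, the value counts how many indexed literature references report it.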
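Wherever Hepatotoxicity (steatosis) is given: steatosis confirmed by histopathology, value is the count of indexed references.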

`CCCCC(=O)N(Cc1ccc(-c2ccccc2-c2nnn[nH]2)cc1)[C@H](C(=O)O)C(C)C`: the “Hepatotoxicity (moderate)” value in data set [1] was 0%; in data set [4], 2. For the same molecule, the entries for the “Hepatotoxicity (acute)” value in [2] and in data set [5] were 0% and 3, respectively. Moreover, the “Hepatotoxicity (time to onset)” value in data set [3] turned out to be 1 month - 4.5 months. In addition, the “Hepatotoxicity (cytolytic)” value in data set [6] was determined as 1. The “Hepatotoxicity (choleostasis)” value in [7] was 1. The “Hepatotoxicity (severe hepatitis)” value in [8] turned out to be 1. Moreover, the “Hepatotoxicity (chronic liver disease)” value in data set [9] is on record as 0. The “Hepatotoxicity (cirrhosis)” value in [10] is given as 0. Moreover, the “Hepatotoxicity (granulomatous hepatitis)” value in data set [11] was determined as 0. Moreover, the “Hepatotoxicity (association with vascular disease)” value in [12] was 0. Further, the “Hepatotoxicity (steatosis)” value in [13] stood at 0. Besides, in data set [14], the “Hepatotoxicity (malignant tumour)” value came to 0. Moreover, the “Hepatotoxicity (benign tumour)” value in [15] worked out at 0.

For the molecule `COc1ccc(CCN(C)CCCC2(c3ccc(OC)c(OC)c3)S(=O)(=O)CCCS2(=O)=O)cc1OC`, the “Hepatotoxicity (moderate)” value in data set [1] amounted to 6.7%; in data set [4], 2. Further, the “Hepatotoxicity (acute)” value is given as 0% in data set [2] and 1 in data set [5]. In data set [3], the “Hepatotoxicity (time to onset)” value worked out at 1 month. Moreover, the “Hepatotoxicity (cytolytic)” value in data set [6] is listed as 0. The “Hepatotoxicity (choleostasis)” value in [7] is on record as 1. In addition, the “Hepatotoxicity (severe hepatitis)” value in data set [8] came to 0. The “Hepatotoxicity (chronic liver disease)” value in data set [9] was found to be 0. Also, in data set [10], the “Hepatotoxicity (cirrhosis)” value is reported as 0. Also, the “Hepatotoxicity (granulomatous hepatitis)” value in [11] is given as 0. For the same molecule, the “Hepatotoxicity (association with vascular disease)” value in [12] is on record as 0. Moreover, the “Hepatotoxicity (steatosis)” value in data set [13] came to 0. For the same molecule, in [14], the “Hepatotoxicity (malignant tumour)” value came out at 0. Moreover, the “Hepatotoxicity (benign tumour)” value in [15] is reported as 0.

`CCCCN/C(=C1/C=C(Cl)C=CC1=O)c1ccccc1Cl`: the “Hepatotoxicity (moderate)” value in data set [1] was found to be 54.5%; in data set [4], 1. Also, the “Hepatotoxicity (acute)” value in data set [2] is 0%; in data set [5] it was 1. Moreover, the “Hepatotoxicity (time to onset)” value in [3] is 1 month. Besides, in [6], the “Hepatotoxicity (cytolytic)” value is on record as 0. Moreover, the “Hepatotoxicity (choleostasis)” value in data set [7] was determined as 0. In data set [8], the “Hepatotoxicity (severe hepatitis)” value is given as 0. In addition, the “Hepatotoxicity (chronic liver disease)” value in data set [9] turned out to be 0. For the same molecule, in data set [10], the “Hepatotoxicity (cirrhosis)” value amounted to 0. In addition, the “Hepatotoxicity (granulomatous hepatitis)” value in data set [11] is reported as 0. In data set [12], the “Hepatotoxicity (association with vascular disease)” value was 0. Also, the “Hepatotoxicity (steatosis)” value in [13] is reported as 0. Besides, in [14], the “Hepatotoxicity (malignant tumour)” value is given as 0. The “Hepatotoxicity (benign tumour)” value in data set [15] is reported as 0.

`CC1(C)S[C@@H]2[C@H](NC(=O)[C@H](C(=O)O)c3ccsc3)C(=O)N2[C@H]1C(=O)O.O=C(O)[C@H]1/C(=C/CO)O[C@@H]2CC(=O)N21`: the “Hepatotoxicity (moderate)” value in [1] worked out at 33%; in data set [4], 54. Besides, the “Hepatotoxicity (acute)” value in [2] is 0%; in data set [5], 2. Also, the “Hepatotoxicity (time to onset)” value in data set [3] amounted to 1 day - 6 weeks. Moreover, the “Hepatotoxicity (cytolytic)” value in [6] is recorded as 0. The “Hepatotoxicity (choleostasis)” value in data set [7] was 2. Moreover, the “Hepatotoxicity (severe hepatitis)” value in data set [8] stood at 1. Further, the “Hepatotoxicity (chronic liver disease)” value in [9] turned out to be 0. For the same molecule, in data set [10], the “Hepatotoxicity (cirrhosis)” value turned out to be 0. The “Hepatotoxicity (granulomatous hepatitis)” value in data set [11] is recorded as 0. In addition, the “Hepatotoxicity (association with vascular disease)” value in data set [12] was found to be 0. The “Hepatotoxicity (steatosis)” value in data set [13] is listed as 0. In addition, in data set [14], the “Hepatotoxicity (malignant tumour)” value is given as 0. Moreover, in [15], the “Hepatotoxicity (benign tumour)” value turned out to be 0.

In the case of `C=CC1=C(C(=O)O)N2C(=O)[C@@H](NC(=O)/C(=N\O)c3csc(N)n3)[C@H]2SC1`, the “Hepatotoxicity (moderate)” value was 28.6% in data set [1] and 43 in data set [4]. Besides, the figures for the “Hepatotoxicity (acute)” value in data set [2] and in data set [5] were 0% and 1, respectively. Moreover, the “Hepatotoxicity (time to onset)” value in data set [3] was 2 days. In data set [6], the “Hepatotoxicity (cytolytic)” value is 0. In addition, the “Hepatotoxicity (choleostasis)” value in [7] is 0. In addition, the “Hepatotoxicity (severe hepatitis)” value in data set [8] is given as 0. Besides, the “Hepatotoxicity (chronic liver disease)” value in [9] amounted to 0. For the same molecule, in data set [10], the “Hepatotoxicity (cirrhosis)” value is 0. Also, the “Hepatotoxicity (granulomatous hepatitis)” value in data set [11] was 1. Moreover, in [12], the “Hepatotoxicity (association with vascular disease)” value is 0. Moreover, the “Hepatotoxicity (steatosis)” value in data set [13] was 0. Besides, the “Hepatotoxicity (malignant tumour)” value in data set [14] stood at 0. In addition, the “Hepatotoxicity (benign tumour)” value in [15] was 0.

Consider `COc1cc2c(cc1OC)C(=O)C(CC1CCN(Cc3ccccc3)CC1)C2` (centres undefined) [DONEPEZIL], for which the “Hepatotoxicity (moderate)” value in data set [1] worked out at 0%; in data set [4], 0. Besides, the “Hepatotoxicity (acute)” value in data set [2] was determined as 0%; in data set [5], 2. In addition, in [3], the “Hepatotoxicity (time to onset)” value stood at 10 days - 12 days. For the same molecule, the “Hepatotoxicity (cytolytic)” value in data set [6] is on record as 0. Also, the “Hepatotoxicity (choleostasis)” value in [7] turned out to be 2. Besides, in data set [8], the “Hepatotoxicity (severe hepatitis)” value is listed as 0. Further, the “Hepatotoxicity (chronic liver disease)” value in [9] worked out at 0. Also, the “Hepatotoxicity (cirrhosis)” value in data set [10] stood at 0. In addition, the “Hepatotoxicity (granulomatous hepatitis)” value in data set [11] was determined as 0. Also, the “Hepatotoxicity (steatosis)” value in data set [13] turned out to be 0. Also, in data set [14], the “Hepatotoxicity (malignant tumour)” value turned out to be 0. The “Hepatotoxicity (benign tumour)” value in data set [15] came to 0.

For `CC(C)n1c(/C=C/C(O)CC(O)CC(=O)O)c(-c2ccc(F)cc2)c2ccccc21` (centres undefined) [FLUVASTATIN], the “Hepatotoxicity (moderate)” value in data set [1] (Liver) was 55%; in data set [4] it was 36. For the same molecule, in [2] (Liver), the “Hepatotoxicity (acute)” value is 1.2%. The “Hepatotoxicity (time to onset)” value in [3] is 8 months. The “Hepatotoxicity (cytolytic)” value in data set [6] (Liver) turned out to be 3. Also, the “Hepatotoxicity (choleostasis)” value in [7] (Liver) came out at 2. Besides, in data set [8] (Liver), the “Hepatotoxicity (severe hepatitis)” value was determined as 0. Moreover, the “Hepatotoxicity (chronic liver disease)” value in data set [9] is on record as 0. Also, in data set [10], the “Hepatotoxicity (cirrhosis)” value came out at 0. The “Hepatotoxicity (granulomatous hepatitis)” value in [11] (Liver) worked out at 0. Moreover, in [12], the “Hepatotoxicity (association with vascular disease)” value turned out to be 0. In addition, the “Hepatotoxicity (steatosis)” value in data set [13] is listed as 0. Moreover, in data set [14], the “Hepatotoxicity (malignant tumour)” value is reported as 0. Further, the “Hepatotoxicity (benign tumour)” value in data set [15] came out at 0.

For the molecule `CC(C(=O)O)c1cccc(C(=O)c2ccccc2)c1` (centres undefined) [KETOPROFEN], the “Hepatotoxicity (moderate)” value in data set [1] came out at 2.5%; in [4] it was 3. Besides, the “Hepatotoxicity (acute)” value in data set [2] is given as 0%. Also, the “Hepatotoxicity (time to onset)” value in data set [3] worked out at 2 days - 2 weeks. In addition, in data set [6], the “Hepatotoxicity (cytolytic)” value was 3. In addition, the “Hepatotoxicity (choleostasis)” value in data set [7] is 5. Further, the “Hepatotoxicity (severe hepatitis)” value in [8] came out at 2. Further, the “Hepatotoxicity (chronic liver disease)” value in data set [9] was determined as 0. Besides, the “Hepatotoxicity (cirrhosis)” value in [10] is given as 0. In data set [11], the “Hepatotoxicity (granulomatous hepatitis)” value is listed as 0. Moreover, the “Hepatotoxicity (association with vascular disease)” value in [12] is 0. The “Hepatotoxicity (steatosis)” value in data set [13] was determined as 3. In addition, in data set [14], the “Hepatotoxicity (malignant tumour)” value worked out at 0. The “Hepatotoxicity (benign tumour)” value in data set [15] stood at 0.

Take `COC(=O)C1=C(C)NC(C)=C(C(=O)OCCN(C)Cc2ccccc2)C1c1cccc([N+](=O)[O-])c1` (centres undefined) [NICARDIPINE]: the “Hepatotoxicity (moderate)” value in [1] was 6.7%; in data set [4] it was 6. Also, in data set [2], the “Hepatotoxicity (acute)” value is on record as 0%. In addition, in data set [3], the “Hepatotoxicity (time to onset)” value came out at 2 months. Further, the “Hepatotoxicity (cytolytic)” value in data set [6] turned out to be 0. For the same molecule, the “Hepatotoxicity (choleostasis)” value in [7] stood at 0. Further, the “Hepatotoxicity (severe hepatitis)” value in data set [8] is listed as 0. Moreover, the “Hepatotoxicity (chronic liver disease)” value in data set [9] is recorded as 0. Further, in [10], the “Hepatotoxicity (cirrhosis)” value came out at 0. In addition, in data set [11], the “Hepatotoxicity (granulomatous hepatitis)” value was found to be 0. The “Hepatotoxicity (association with vascular disease)” value in [12] stood at 0. In addition, the “Hepatotoxicity (steatosis)” value in data set [13] was 1. For the same molecule, the “Hepatotoxicity (malignant tumour)” value in [14] came out at 0. Also, the “Hepatotoxicity (benign tumour)” value in data set [15] worked out at 0.

As to `O=C(O)CCc1nc(-c2ccccc2)c(-c2ccccc2)o1` [OXAPROZIN], the “Hepatotoxicity (moderate)” value is listed as 20% in data set [1] and 4 in data set [4]. For the same molecule, the “Hepatotoxicity (acute)” value in data set [2] is given as 0.1%. In data set [3], the “Hepatotoxicity (time to onset)” value is 2 weeks - 6 months. Besides, the “Hepatotoxicity (cytolytic)” value in data set [6] worked out at 2. Also, the “Hepatotoxicity (choleostasis)” value in data set [7] was determined as 0. Moreover, the “Hepatotoxicity (severe hepatitis)” value in data set [8] is on record as 1. For the same molecule, the “Hepatotoxicity (chronic liver disease)” value in data set [9] amounted to 0. For the same molecule, the “Hepatotoxicity (cirrhosis)” value in [10] was determined as 0. Besides, in [11], the “Hepatotoxicity (granulomatous hepatitis)” value was determined as 0. For the same molecule, the “Hepatotoxicity (association with vascular disease)” value in data set [12] is on record as 0. Further, in data set [13], the “Hepatotoxicity (steatosis)” value is reported as 0. Moreover, the “Hepatotoxicity (malignant tumour)” value in [14] came out at 0. The “Hepatotoxicity (benign tumour)” value in [15] was 0.

With `C[C@@H](c1ncncc1F)[C@](O)(Cn1cncn1)c1ccc(F)cc1F` [VORICONAZOLE], the “Hepatotoxicity (moderate)” value is 9.5% in [1] and 10 in data set [4]. Further, the “Hepatotoxicity (acute)” value in [2] is on record as 0%. Besides, the “Hepatotoxicity (time to onset)” value in data set [3] amounted to 1 day - 1 year. The “Hepatotoxicity (cytolytic)” value in [6] is given as 1. Moreover, the “Hepatotoxicity (choleostasis)” value in [7] amounted to 1. The “Hepatotoxicity (severe hepatitis)” value in data set [8] is 1. For the same molecule, the “Hepatotoxicity (chronic liver disease)” value in [9] was determined as 0. For the same molecule, the “Hepatotoxicity (cirrhosis)” value in data set [10] is 0. In addition, the “Hepatotoxicity (granulomatous hepatitis)” value in data set [11] is 0. In addition, in data set [12], the “Hepatotoxicity (association with vascular disease)” value is on record as 0. The “Hepatotoxicity (steatosis)” value in [13] is 0. Moreover, in data set [14], the “Hepatotoxicity (malignant tumour)” value came out at 0. Also, the “Hepatotoxicity (benign tumour)” value in data set [15] came to 0.
